What was measured:
[1] = Selectivity index, ratio of CC50 for human HepG2(2.2.15) cells to IC50 for HBV surface antigen secretion; format: functional
[2] = tested on: Hepatitis B virus; assay: Antiviral activity against HBV assessed as inhibition of viral early antigen secretion; format: functional, organism-based
[3] = Selectivity index, ratio of CC50 for human HepG2(2.2.15) cells to IC50 for HBV early antigen secretion; format: functional
[4] = Cytotoxicity against human HepG2(2.2.15) cells; format: cell-based
[5] = tested on: Hepatitis B virus; assay: Antiviral activity against HBV assessed as inhibition of viral surface antigen secretion; format: functional, organism-based

| Compound | Ratio CC50/IC50 [1] | IC50 [2] [µM] | Ratio CC50/IC50 [3] | CC50 [4] [µM] | IC50 [5] [µM] |
| --- | --- | --- | --- | --- | --- |
| C[C@H](C[C@H](OC(=O)c1ccc(Br)cc1)[C@@H](OC(=O)c1ccc(Br)cc1)C(C)(C)O)C1=C2C[C@H](OC(=O)c3ccc(Br)cc3)[C@H]3[C@@]4(C)CCC(=O)C(C)(C)[C@@H]4CC[C@]3(C)[C@@]2(C)CC1 | <1 | > 650 | <1 | 650 | > 650 |
| C=C(C)[C@H](OC(=O)COC)[C@H](C[C@@H](C)C1=C2C[C@H](OC(=O)COC)[C@H]3[C@@]4(C)CCC(=O)C(C)(C)[C@@H]4CC[C@]3(C)[C@@]2(C)CC1)OC(=O)COC | >42 | 120 | >24 | > 2800 | 68 |
| CCOCC(=O)O[C@@H](C[C@@H](C)C1=C2C[C@H](OC(=O)COCC)[C@H]3[C@@]4(C)CCC(=O)C(C)(C)[C@@H]4CC[C@]3(C)[C@@]2(C)CC1)[C@@H](OC(=O)COCC)C(C)(C)O | >6.5 | 2000 | >1.3 | > 2600 | 400 |
| CC(=O)OCC(=O)O[C@@H](C[C@@H](C)C1=C2C[C@H](OC(=O)COC(C)=O)[C@H]3[C@@]4(C)CCC(=O)C(C)(C)[C@@H]4CC[C@]3(C)[C@@]2(C)CC1)[C@@H](OC(=O)COC(C)=O)C(C)(C)O | >1.3 | > 51 | <1 | 51 | < 38 |
| C=C(C)[C@H](OC(=O)COC(C)=O)[C@H](C[C@@H](C)[C@]12CC[C@@]3(C)[C@@]1(C[C@H](OC(=O)COC(C)=O)[C@H]1[C@@]4(C)CCC(=O)C(C)(C)[C@@H]4CC[C@@]13C)O2)OC(=O)COC(C)=O | >31 | > 1600 | – | > 1600 | 51 |
| COCC(=O)O[C@@H](C[C@@H](C)C1=C2C[C@H](OC(=O)COC)[C@H]3[C@@]4(C)CCC(=O)C(C)(C)[C@@H]4CC[C@]3(C)[C@@]2(C)CC1)[C@@H](OC(=O)COC)C(C)(C)OC(=O)COC | >90 | 27 | >93 | > 2500 | 28 |
| C[C@H](C[C@H](OC(=O)CN1C(=O)c2ccccc2C1=O)[C@@H](OC(=O)CN1C(=O)c2ccccc2C1=O)C(C)(C)O)C1=C2C[C@H](OC(=O)CN3C(=O)c4ccccc4C3=O)[C@H]3[C@@]4(C)CCC(=O)C(C)(C)[C@@H]4CC[C@]3(C)[C@@]2(C)CC1 | >1.2 | 140 | >11 | > 1500 | 1200 |
| CCOCC(=O)O[C@@H](C[C@@H](C)[C@]12CC[C@@]3(C)[C@@]1(C[C@H](OC(=O)COCC)[C@H]1[C@@]4(C)CCC(=O)C(C)(C)[C@@H]4CC[C@@]13C)O2)[C@@H](OC(=O)COCC)C(C)(C)OC(=O)COCC | >5.6 | 320 | >4.4 | > 1400 | 250 |
| C=C(C)[C@H](OC(=O)COC)[C@H](C[C@@H](C)[C@]12CC[C@@]3(C)[C@@]1(C[C@H](OC(=O)COC)[C@H]1[C@@]4(C)CCC(=O)C(C)(C)[C@@H]4CC[C@@]13C)O2)OC(=O)COC | >29 | > 1300 | – | > 1300 | 44 |
| C[C@H](C[C@H](OC(=O)/C=C/c1ccccc1Cl)[C@@H](OC(=O)/C=C/c1ccccc1Cl)C(C)(C)O)C1=C2C[C@H](OC(=O)/C=C/c3ccccc3Cl)[C@H]3[C@@]4(C)CCC(=O)C(C)(C)[C@@H]4CC[C@]3(C)[C@@]2(C)CC1 | >1.3 | > 1300 | – | > 1300 | 950 |
| COCC(=O)O[C@@H](C[C@@H](C)[C@]12CC[C@@]3(C)[C@@]1(C[C@H](OC(=O)COC)[C@H]1[C@@]4(C)CCC(=O)C(C)(C)[C@@H]4CC[C@@]13C)O2)[C@@H](OC(=O)COC)C(C)(C)OC(=O)COC | >7.3 | > 1600 | – | > 800 | 110 |
| C[C@H](C[C@H](OC(=O)c1ccc(Cl)cc1Cl)[C@@H](OC(=O)c1ccc(Cl)cc1Cl)C(C)(C)O)C1=C2C[C@H](OC(=O)c3ccc(Cl)cc3Cl)[C@H]3[C@@]4(C)CCC(=O)C(C)(C)[C@@H]4CC[C@]3(C)[C@@]2(C)CC1 | – | > 1200 | – | > 1200 | > 1200 |
| CCCCCCCC(=O)O[C@@H](C[C@@H](C)C1=C2C[C@H](OC(=O)CCCCCCC)[C@H]3[C@@]4(C)CCC(=O)C(C)(C)[C@@H]4CC[C@]3(C)[C@@]2(C)CC1)[C@@H](OC(=O)CCCCCCC)C(C)(C)O | – | > 600 | – | > 600 | > 600 |
| C[C@H](C[C@H](OC(=O)C1CCCCC1)[C@@H](OC(=O)C1CCCCC1)C(C)(C)O)C1=C2C[C@H](OC(=O)C3CCCCC3)[C@H]3[C@@]4(C)CCC(=O)C(C)(C)[C@@H]4CC[C@]3(C)[C@@]2(C)CC1 | – | > 800 | – | > 800 | > 800 |
| C[C@H](C[C@H](OC(=O)Cc1ccc([N+](=O)[O-])cc1)[C@@H](OC(=O)Cc1ccc([N+](=O)[O-])cc1)C(C)(C)O)C1=C2C[C@H](OC(=O)Cc3ccc([N+](=O)[O-])cc3)[C@H]3[C@@]4(C)CCC(=O)C(C)(C)[C@@H]4CC[C@]3(C)[C@@]2(C)CC1 | – | > 1000 | – | > 1000 | > 1000 |
| C[C@H](C[C@H](OC(=O)CC(C)(C)C)[C@@H](OC(=O)CC(C)(C)C)C(C)(C)O)C1=C2C[C@H](OC(=O)CC(C)(C)C)[C@H]3[C@@]4(C)CCC(=O)C(C)(C)[C@@H]4CC[C@]3(C)[C@@]2(C)CC1 | – | > 1200 | – | > 1200 | > 1200 |
| C=C(C)[C@H](OC(=O)COC(C)=O)[C@H](C[C@@H](C)C1=C2C[C@H](OC(=O)COC(C)=O)[C@H]3[C@@]4(C)CCC(=O)C(C)(C)[C@@H]4CC[C@]3(C)[C@@]2(C)CC1)OC(=O)COC(C)=O | – | < 32 | – | < 30 | < 32 |
| COCC(=O)O[C@@H](C[C@@H](C)C1=C2C[C@H](OC(=O)COC)[C@H]3[C@@]4(C)CCC(=O)C(C)(C)[C@@H]4CC[C@]3(C)[C@@]2(C)CC1)[C@@H](OC(=O)COC)C(C)(C)O | 2.9 | > 400 | – | 400 | 140 |
| C=C(C)[C@H](OC(=O)CCCC)[C@H](C[C@@H](C)C1=C2C[C@H](OC(=O)CCCC)[C@H]3[C@@]4(C)CCC(=O)C(C)(C)[C@@H]4CC[C@]3(C)[C@@]2(C)CC1)OC(=O)CCCC | – | > 920 | – | > 920 | > 920 |
| C=C(C)[C@H](OC(=O)CC(C)C)[C@H](C[C@@H](C)C1=C2C[C@H](OC(=O)CC(C)C)[C@H]3[C@@]4(C)CCC(=O)C(C)(C)[C@@H]4CC[C@]3(C)[C@@]2(C)CC1)OC(=O)CC(C)C | – | > 1200 | – | > 1200 | > 1200 |
| C=C(C)[C@H](OC(=O)COCC)[C@H](C[C@@H](C)[C@]12CC[C@@]3(C)[C@@]1(C[C@H](OC(=O)COCC)[C@H]1[C@@]4(C)CCC(=O)C(C)(C)[C@@H]4CC[C@@]13C)O2)OC(=O)COCC | >90 | > 1800 | – | > 1800 | 20 |

Source: ChEMBL document CHEMBL1153983, “Anti-HBV agents. Part 2: synthesis and in vitro anti-hepatitis B virus activities of alisol A derivatives” (Bioorg Med Chem Lett, 2009)
